What is called EC50 is the concentration giving half of the maximal effect.

The subject of this experiment is HIV-IIIb. The experiment is described as follows: Test A: Antiviral Assay in MT4 Cells. Format: cell-based. Conditions: Human immunodeficiency virus 1, IIIB, MT4, 120 h. The procedure, abridged: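 Read-out: CellTiter-Glo chemiluminescence after 5-day incubation at 37 °C. Compounds tested as 3-fold serial dilutions (10 concentrations, quadruplicate) in RPMI 1640 with 10% FBS, on MT-4 cells pre-infected at 37 °C with HIV-IIIb at 0.004 m.o.i.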

[1] abbreviates: Table 2, MT-4 cells infected with HIV-IIIb, 5 days of incubation, CellTiter-Glo, read-out: EC50.

Where two headings read alike, the source gives them in different places.

With `COc1cnc(-c2ccc3c(cnn3C)c2)cc1-c1nc2cc(C)c([C@H](OC(C)(C)C)C(=O)O)c(-c3ccc(Cl)cc3)c2s1` [Compound 288, (S)-2-(tert-butoxy)-2-(7-(4-chlorophenyl)-2-(5-methoxy-2-(1-methyl-1H-indazol-5-yl)pyridin-4-yl)-5-methylbenzo[d]thiazol-6-yl)acetic acid], the EC50 under setting [1] came out at 65 nM.
On the same count and under the same terms, to `Cc1cnc(-c2ccc3c(cnn3C)c2)cc1-c1nc2cc(C)c([C@H](OC(C)(C)C)C(=O)O)c(-c3ccc(Cl)cc3)c2s1` [Compound 289, (S)-2-(tert-butoxy)-2-(7-(4-chlorophenyl)-5-methyl-2-(5-methyl-2-(1-methyl-1H-indazol-5-yl)pyridin-4-yl)benzo[d]thiazol-6-yl)acetic acid] belongs 25 nM; to `Cc1cc2nc(-c3cc(-c4ccc5c(cnn5C)c4)ncc3C(F)F)sc2c(-c2ccc(Cl)cc2)c1[C@H](OC(C)(C)C)C(=O)O` [Compound 290, (S)-2-(tert-butoxy)-2-(7-(4-chlorophenyl)-2-(5-(difluoromethyl)-2-(1-methyl-1H-indazol-5-yl)pyridin-4-yl)-5-methylbenzo[d]thiazol-6-yl)acetic acid], 87 nM; to `Cc1cc2nc(-c3cc(-c4ccc5c(cnn5C)c4)ncc3F)sc2c(-c2ccc(Cl)cc2)c1[C@H](OC(C)(C)C)C(=O)O` [Compound 291, (S)-2-(tert-butoxy)-2-(7-(4-chlorophenyl)-2-(5-fluoro-2-(1-methyl-1H-indazol-5-yl)pyridin-4-yl)-5-methylbenzo[d]thiazol-6-yl)acetic acid], 76 nM.
Still for that read-out and setting: to `Cc1cc2nc(-c3ccc4nc(C)n(C)c4c3)sc2c(-c2ccc(Cl)cc2)c1[C@H](OC(C)(C)C)C(=O)O` [Compound 292, (S)-2-(tert-butoxy)-2-(7-(4-chlorophenyl)-2-(1,2-dimethyl-1H-benzo[d]imidazol-6-yl)-5-methylbenzo[d]thiazol-6-yl)acetic acid] belongs 23 nM.
On the same count and under the same terms, the value for `Cc1nc2c([nH]1)CCN(c1nc3cc(C)c([C@H](OC(C)(C)C)C(=O)O)c(-c4ccc(Cl)cc4)c3s1)C2` [Compound 293, (S)-2-tert-butoxy-2-(7-(4-chlorophenyl)-5-methyl-2-(2-methyl-6,7-dihydro-1H-imidazo[4,5-c]pyridin-5(4H)-yl)benzo[d]thiazol-6-yl)acetic acid] was 215 nM.
For the compound `Cc1cc2nc(-c3ccc4c(c3)nc(C)n4C3CCN(C)CC3)sc2c(-c2ccc(Cl)cc2)c1[C@H](OC(C)(C)C)C(=O)O` [Compound 294, (S)-2-(tert-butoxy)-2-(7-(4-chlorophenyl)-5-methyl-2-(2-methyl-1-(1-methylpiperidin-4-yl)-1H-benzo[d]imidazol-5-yl)benzo[d]thiazol-6-yl)acetic acid], under setting [1], the concentration for a half-maximal effect (EC50) came to 36 nM.
Turning to `Cc1cc2nc(-c3ccc4c(c3)ncn4C3CCN(C)CC3)sc2c(-c2ccc(Cl)cc2)c1[C@H](OC(C)(C)C)C(=O)O` [Compound 295, (S)-2-(tert-butoxy)-2-(7-(4-chlorophenyl)-5-methyl-2-(1-(1-methylpiperidin-4-yl)-1H-benzo[d]imidazol-5-yl)benzo[d]thiazol-6-yl)acetic acid], the EC50 under setting [1] was 34 nM.
Consider `Cc1cc2nc(-c3ccc4nc(C)n([C@@H]5CCN(C)C5)c4c3)sc2c(-c2ccc(Cl)cc2)c1[C@H](OC(C)(C)C)C(=O)O` [Compound 296, (S)-2-tert-butoxy-2-(7-(4-chlorophenyl)-5-methyl-2-(2-methyl-1-((R)-1-methylpyrrolidin-3-yl)-1H-benzo[d]imidazol-6-yl)benzo[d]thiazol-6-yl)acetic acid], for which the half-maximal effective concentration (EC50) under setting [1] was 13 nM.
On the same count and under the same terms, to `Cc1cc2nc(-c3ccc4nc(C)n(C5CN(C)C5)c4c3)sc2c(-c2ccc(Cl)cc2)c1[C@H](OC(C)(C)C)C(=O)O` [Compound 297, (S)-2-tert-butoxy-2-(7-(4-chlorophenyl)-5-methyl-2-(2-methyl-1-(1-methylazetidin-3-yl)-1H-benzo[d]imidazol-6-yl)benzo[d]thiazol-6-yl)acetic acid] belongs 17 nM; to `Cc1cc2nc(-c3ccc4nc(C)n(C5CNC5)c4c3)sc2c(-c2ccc(Cl)cc2)c1[C@H](OC(C)(C)C)C(=O)O` [Compound 298, (S)-2-(2-(1-(azetidin-3-yl)-2-methyl-1H-benzo[d]imidazol-6-yl)-7-(4-chlorophenyl)-5-methylbenzo[d]thiazol-6-yl)-2-tert-butoxyacetic acid], 181 nM; to `Cc1cc2nc(-c3ccc4nc(C)n([C@@H]5CCNC5)c4c3)sc2c(-c2ccc(Cl)cc2)c1[C@H](OC(C)(C)C)C(=O)O` [Compound 299, (S)-2-tert-butoxy-2-(7-(4-chlorophenyl)-5-methyl-2-(2-methyl-1-((R)-pyrrolidin-3-yl)-1H-benzo[d]imidazol-6-yl)benzo[d]thiazol-6-yl)acetic acid], 130 nM.
Still for that read-out and setting: to `Cc1cc2nc(-c3ccc4nc(C)n([C@@H]5CCN(C(C)C)C5)c4c3)sc2c(-c2ccc(Cl)cc2)c1[C@H](OC(C)(C)C)C(=O)O` [Compound 300, (S)-2-tert-butoxy-2-(7-(4-chlorophenyl)-2-(1-((R)-1-isopropylpyrrolidin-3-yl)-2-methyl-1H-benzo[d]imidazol-6-yl)-5-methylbenzo[d]thiazol-6-yl)acetic acid] belongs 12 nM.
Same read-out and setting: the value for `Cc1cc2nc(-c3ccc4nc(C)n([C@H]5CCNC5)c4c3)sc2c(-c2ccc(Cl)cc2)c1[C@H](OC(C)(C)C)C(=O)O` [Compound 301, (S)-2-tert-butoxy-2-(7-(4-chlorophenyl)-5-methyl-2-(2-methyl-1-((S)-pyrrolidin-3-yl)-1H-benzo[d]imidazol-6-yl)benzo[d]thiazol-6-yl)acetic acid] was 109 nM; that for `Cc1cc2nc(-c3cnc4c(c3)nc(C)n4C)sc2c(-c2ccc(Cl)cc2)c1[C@H](OC(C)(C)C)C(=O)O` [Compound 302, (S)-2-tert-butoxy-2-(7-(4-chlorophenyl)-2-(2,3-dimethyl-3H-imidazo[4,5-b]pyridin-6-yl)-5-methylbenzo[d]thiazol-6-yl)acetic acid] was 8 nM; that for `Cc1cc2nc(-c3ccc4c(c3)[nH]c(=O)n4C)sc2c(-c2ccc(Cl)cc2)c1[C@H](OC(C)(C)C)C(=O)O` [Compound 303, (S)-2-tert-butoxy-2-(7-(4-chlorophenyl)-5-methyl-2-(1-methyl-2-oxo-2,3-dihydro-1H-benzo[d]imidazol-5-yl)benzo[d]thiazol-6-yl)acetic acid] was 19 nM.
As for `Cc1cc2nc(-c3cnc(C)c(-c4ccc5c(cnn5C)c4)c3)sc2c(-c2ccc(Cl)cc2)c1[C@H](OC(C)(C)C)C(=O)O` [Compound 305, (S)-2-tert-butoxy-2-(7-(4-chlorophenyl)-5-methyl-2-(6-methyl-5-(1-methyl-1H-indazol-5-yl)pyridin-3-yl)benzo[d]thiazol-6-yl)acetic acid], the EC50 under setting [1] came to 10 nM.
Same read-out and setting: the value for `Cc1cc2nc(-c3cc(-c4ccc5c(cnn5C)c4)cnc3C)sc2c(-c2ccc(Cl)cc2)c1[C@H](OC(C)(C)C)C(=O)O` [Compound 306, (S)-2-tert-butoxy-2-(7-(4-chlorophenyl)-5-methyl-2-(2-methyl-5-(1-methyl-1H-indazol-5-yl)pyridin-3-yl)benzo[d]thiazol-6-yl)acetic acid] was 14 nM.
Consider `Cc1cc2nc(-c3cccc(N4CCN(C(C)C)CC4)n3)sc2c(-c2ccc(Cl)cc2)c1[C@H](OC(C)(C)C)C(=O)O` [Compound 307, (S)-2-tert-butoxy-2-(7-(4-chlorophenyl)-2-(6-(4-isopropylpiperazin-1-yl)pyridin-2-yl)-5-methylbenzo[d]thiazol-6-yl)acetic acid], for which the concentration for a half-maximal effect (EC50) was 4 nM.
For `Cc1cc2nc(-c3cccc(N4CCN(C5COC5)CC4)n3)sc2c(-c2ccc(Cl)cc2)c1[C@H](OC(C)(C)C)C(=O)O` [Compound 308, (S)-2-tert-butoxy-2-(7-(4-chlorophenyl)-5-methyl-2-(6-(4-(oxetan-3-yl)piperazin-1-yl)pyridin-2-yl)benzo[d]thiazol-6-yl)acetic acid], the concentration for a half-maximal effect (EC50) under setting [1] was 6 nM.
Regarding `Cc1cc2nc(-c3cccc(-c4ccc5c(cnn5C)c4)n3)sc2c(-c2ccc(Cl)cc2)c1[C@H](OC(C)(C)C)C(=O)O` [Compound 309, (S)-2-tert-butoxy-2-(7-(4-chlorophenyl)-5-methyl-2-(6-(1-methyl-1H-indazol-5-yl)pyridin-2-yl)benzo[d]thiazol-6-yl)acetic acid], under setting [1], the concentration giving a half-maximal response (EC50) is 37 nM.
As for `Cc1cc2nc(-c3nc(-c4ccc5c(cnn5C)c4)cs3)sc2c(-c2ccc(Cl)cc2)c1[C@H](OC(C)(C)C)C(=O)O` [Compound 310, (S)-2-tert-butoxy-2-(7-(4-chlorophenyl)-5-methyl-2-(4-(1-methyl-1H-indazol-5-yl)thiazol-2-yl)benzo[d]thiazol-6-yl)acetic acid], a half-maximal response (EC50) required 26 nM.
As for `Cc1cc2nc(-c3nc(-c4ccc5c(cnn5C)c4)ccc3N)sc2c(-c2ccc(Cl)cc2)c1[C@H](OC(C)(C)C)C(=O)O` [Compound 311, (S)-2-(2-(3-amino-6-(1-methyl-1H-indazol-5-yl)pyridin-2-yl)-7-(4-chlorophenyl)-5-methylbenzo[d]thiazol-6-yl)-2-tert-butoxyacetic acid], the concentration for a half-maximal effect (EC50) under setting [1] was determined as 45 nM.
Same read-out and setting: to `Cc1cc2nc(-c3cn(C)c(-c4ccc5c(cnn5C)c4)n3)sc2c(-c2ccc(Cl)cc2)c1[C@H](OC(C)(C)C)C(=O)O` [Compound 312, (S)-2-tert-butoxy-2-(7-(4-chlorophenyl)-5-methyl-2-(1-methyl-2-(1-methyl-1H-indazol-5-yl)-1H-imidazol-4-yl)benzo[d]thiazol-6-yl)acetic acid] belongs 37 nM; to `Cc1ccc(-c2nc3cc(C)c([C@H](OC(C)(C)C)C(=O)O)c(-c4ccc(Cl)cc4)c3s2)nc1-c1ccc2c(cnn2C)c1` [Compound 313, (S)-2-tert-butoxy-2-(7-(4-chlorophenyl)-5-methyl-2-(5-methyl-6-(1-methyl-1H-indazol-5-yl)pyridin-2-yl)benzo[d]thiazol-6-yl)acetic acid], 14 nM.
